Test results taken from US7767671B2, “3-Quinolinecarbonitrile protein kinase inhibitors” (Wyeth, priority 2004, dated 2010).

Key:
LoVo = experiment: Cell based screen for inhibitors of Raf and/or Mek kinase (SRB), LoVo; design: species or system human; conditions: Homo sapiens, 96 h, LoVo cells, four days incubation, (a)/(b)/(c) = average of two/three/five runs
Protocol: Cell Based Screen for Inhibitors of Raf and/or Mek Kinase. Materials
Cell Lines: Human adenocarcinoma cell line LoVo, known to be growth inhibited by low nM concentrations of a reference standard inhibitor of Ras and human adenocarcinoma cell line CaCo-2, known to be growth resistant to the same reference compound.
Cell Media: RPMI 1640 with 10% Fetal Bovine Serum supplemented with L-glutamine and Penicillin/Streptomycin.
Cells are plated at 2000 cells per well for cell line LoVo and 1500 cells for cell line CaCo-2 in 96 well plates. Cells are plated in media (200 μl) and allowed to adhere overnight at 37° C. At 24 hours post plating, compounds are added directly at a volume of 0.5 μl. For the qualitative screen (compounds screened at 25 μM) compound is added directly to cells. For the quantitative screen, compound is first diluted in DMSO to generate concentrations of compound or reference standard of: 1, 5, 10 and 25 μM. It is advisable to make the dilutions in an identical 96 well plate so that compounds can be added using a multichannel micropipettor set at 0.5 μl. The cells are then incubated for four days after which the media is removed using a 12 well manifold by first tipping the plate forward at a 45 degree angle and then inserting the manifold in an upright orientation to prevent the tips of the manifold from disturbing cells at the bottom of the plate. 200 μl of normal saline is then added to each well using an 8 well multichannel pipettor, followed by the careful addition of 50 μl of 50% TCA. The plates are then incubated for 2 hours at 4° C., after which the supernatant is removed using the same technique as above and the plated cells are washed twice with 200 μl water. The plates are then air dried and 50 μl of SRB stock solution is carefully added so that the entire bottom of each well is covered. This again can be done using an 8 well multichannel pipettor. The SRB is incubated with fixed cells for 15 minutes at room temperature after which the SRB is removed with the manifold as described above and the plates washed twice with 350 μl of 1% acetic acid per well each time. The plates are then air dried after which the bound SRB is released from protein by the addition of 200 μl of Tris base. Resolubilizing the SRB is aided by placing the plates on a rotator for 15-30 minutes. The absorbance of each well is determined at 550 or 562 nm using a microtiter plate reader.
Each compound or dilution thereof is performed in triplicate. Outliers are identified by visual inspection of the data. Each plate should have a “0” control (vehicle only).
Quantitative Assay: A standard curve is constructed by plotting the concentration of compound against the average absorbance calculated at that concentration. A curve is plotted and the concentration at which the curve passes through the 50% the absorbance mark seen in the “0” control well is the IC50 calculated for that compound. Multiple entries for a given compound indicate that it is tested multiple times.

[1] = target: T1, recombinant human MEK 1 (MAPKK) / human ERK2 (MAPK) (Homo sapiens, UniProt P28482+Q02750); experiment: Mitogen Activated Protein Kinase (MAPK) test procedure (Mek-Erk coupled); format: biochemical; conditions: MEK1-activated ERK2, 33P ATP, peptide substrate
T1 construct: GST; made in house
T1 sequence (P28482 whole entry): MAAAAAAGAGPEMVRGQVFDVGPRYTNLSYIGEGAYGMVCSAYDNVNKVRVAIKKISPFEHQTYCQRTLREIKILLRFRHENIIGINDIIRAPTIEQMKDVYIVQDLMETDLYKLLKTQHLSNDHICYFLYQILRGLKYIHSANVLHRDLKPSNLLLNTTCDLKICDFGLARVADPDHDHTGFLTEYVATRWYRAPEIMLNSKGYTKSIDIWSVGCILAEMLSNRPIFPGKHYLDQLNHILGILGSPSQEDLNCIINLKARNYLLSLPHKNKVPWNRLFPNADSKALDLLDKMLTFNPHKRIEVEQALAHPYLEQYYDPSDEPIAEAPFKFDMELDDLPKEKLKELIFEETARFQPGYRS
T1 sequence (Q02750 whole entry): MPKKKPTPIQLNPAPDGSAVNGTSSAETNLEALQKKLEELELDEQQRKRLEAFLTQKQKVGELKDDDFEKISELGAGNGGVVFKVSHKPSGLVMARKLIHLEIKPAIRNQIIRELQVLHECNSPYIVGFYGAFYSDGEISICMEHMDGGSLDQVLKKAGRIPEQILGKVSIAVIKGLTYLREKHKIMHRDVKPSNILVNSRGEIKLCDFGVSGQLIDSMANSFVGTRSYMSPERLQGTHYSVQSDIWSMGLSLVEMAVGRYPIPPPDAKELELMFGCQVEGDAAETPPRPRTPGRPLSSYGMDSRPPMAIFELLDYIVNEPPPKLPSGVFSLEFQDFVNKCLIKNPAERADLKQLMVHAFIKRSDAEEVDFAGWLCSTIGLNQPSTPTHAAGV
Protocol: Mitogen Activated Protein Kinase (MAPK) Test Procedure
To evaluate inhibitors of the MAP (mitogen activated protein) kinase a two component coupled standard pharmacological test procedure, which measures phosphorylation of a serine/threonine residue in an appropriate sequence in the substrate in the presence and absence of a putative inhibitor, is used. Recombinant human MEK 1 (MAPKK) is first used to activate recombinant human ERK2 (MAPK) and the activated MAPK (ERK) is incubated with substrate (myelin basic protein peptide (MBPP) or Myc peptide) in the presence of ATP, Mg^+2 and radiolabeled ^33P ATP. The phosphorylated peptide is captured on a P 81 phosphocellulose filter (paper filter or embedded in microtiter plate) ished and counted by scintillation methods.
The peptide substrates used in the assay are MBPP, peptide substrate (APRTPGGRR), or synthetic Myc substrate, (KKFELLPTPPLSPSRR•5 TFA). […]
The reaction is run as follows in 50 mM Tris kinase buffer, pH 7.4 in a reaction volume of 50 ul. […] The filters are briefly air dried before addition of scintillant and samples are counted in the appropriate scintillation counter set up for reading ^33P isotope. […]
The raw data is captured as counts per minute (cpm). […] Mean cpm data is tabulated by group and % inhibition by a test compound is calculated as (corrected cpm control−corrected·cpm sample/control)×100=% inhibition). […]

Question: What does the source list for `COc1cc2c(Nc3ccc(Oc4ccccc4)cc3)c(C#N)cnc2cc1OCCN1CCC(N2CCCCC2)CC1` [Example 32, 7-(2-[1,4′]Bipiperidinyl-1′-yl-ethoxy)-6-methoxy-4-(4-phenoxy-phenylamino)-quinoline-3-carbonitrile]?
Answer: IC50 (LoVo): 900 nM; IC50 [1]: 45 nM; melting point: 141 °C (dec.)
